Experimental data: patent US20170217946A1, “AMINO-SUBSTITUTED ISOXAZOLES” (Bayer Pharma Aktiengesellschaft, priority 2014, published 2017)

How the values were obtained:
HeLa cells = test: Proliferation assay (crystal violet); assay type: cell-based; conditions: Homo sapiens, 96 h, 4 days incubation, read-out: Inhibition of proliferation HeLa IC50
Experimental: Cultivated tumor cells (cells were ordered from ATCC, except HeLa-MaTu and HeLa-MaTu-ADR, which were ordered from EPO-GmbH, Berlin) were plated at a density of 1000 to 5000 cells/well, depending on the growth rate of the respective cell line, in a 96-well multititer plate in 200 μL of their respective growth medium supplemented 10% fetal calf serum. After 24 hours, the cells of one plate (zero-point plate) were stained with crystal violet (see below), while the medium of the other plates was replaced by fresh culture medium (200 μl), to which the test substances were added in various concentrations (0 μM, as well as in the range of 0.001-10 μM; the final concentration of the solvent dimethyl sulfoxide was 0.5%). The cells were incubated for 4 days in the presence of test substances. Cell proliferation was determined by staining the cells with crystal violet: the cells were fixed by adding 20 μl/measuring point of an 11% glutaric aldehyde solution for 15 minutes at room temperature. After three washing cycles of the fixed cells with water, the plates were dried at room temperature. The cells were stained by adding 100 μl/measuring point of a 0.1% crystal violet solution (pH 3.0). After three washing cycles of the stained cells with water, the plates were dried at room temperature. The dye was dissolved by adding 100 μl/measuring point of a 10% acetic acid solution. Absorption was determined by photometry at a wavelength of 595 nm. The change of cell number, in percent, was calculated by normalization of the measured values to the absorption values of the zero-point plate (=0%) and the absorption of the untreated (0 μm) cells (=100%). The IC50 values were determined by means of a 4 parameter fit.

[1] = tested on: spindle assembly checkpoint (phosphorylated histone H3 on serine 10) in HeLa cells; test: SAC-Formation - Nocodazole-Induced Assay; assay type: cell-based; conditions: Homo sapiens, nocodazole 0.1 μg/ml, 24 h incubation
Text: The spindle assembly checkpoint assures the proper segregation of chromosomes during mitosis. Upon entry into mitosis, chromosomes begin to condensate which is accompanied by the phosphorylation of histone H3 on serine 10. Dephosphorylation of histone H3 on serine 10 begins in anaphase and ends at early telophase. Accordingly, phosphorylation of histone H3 on serine 10 can be utilized as a marker of cells in mitosis. Nocodazole is a microtubule destabilizing substance. Paclitaxel is a microtubule stabilizing compound. Thus, nocodazole as well as paclitaxel interfere with microtubule dynamics and mobilize the spindle assembly checkpoint. […] The mitotic breakthrough can be detected by the decrease of cells with phosphorylation of histone H3 on serine 10. This decline is used as a marker to determine the capability of compounds of the present invention to induce a mitotic breakthrough. The typical morphological alteration of nuclei with a prematurely completed mitosis after SAC-inhibition can be monitored via image analysis routines supporting those findings.
The nocodazole and paclitaxel variations were used to focus on compounds that are capable of inhibiting a SAC induced by both microtubule destabilization as well as microtubule stabilization. […]
Cultivated cells of the human cervical tumor cell line HeLa (ATCC CCL-2) were plated at a density of 1000 cells/well in a 1536-well microtiter plate in 2 μl PAA Ham's F12 Medium supplemented with 1% (v/v) glutamine, 1% (v/v) penicillin, 1% (v/v) streptomycin and 10% (v/v) fetal calf serum. […] Images were acquired with a PERKIN ELMER OPERA™ High-Content Analysis reader. Images were analyzed with image analysis software MetaXpress™ from Molecular devices utilizing the Mitotic Index application module. In this assay both labels HOECHST 33342 and phosphorylated Histone H3 on serine 10 were measured. […] The raw assay data were further analyzed by four-parametric hill equation using Genedata's Assay Analyzer and Condoseo software.

Row | IC50 (HeLa cells) [nM] | IC50 [1] [nM] | SMILES
1 | 1900 | 430 | Cc1noc(Nc2cnc(C(F)(F)F)cn2)c1C(=O)Nc1ccc(OC2CCN(CCC(F)(F)F)CC2)nc1 [Example 1a, 3-Methyl-5-{[5-(trifluoromethyl)pyrazin-2-yl]amino}-N-(6-{[1-(3,3,3-trifluoropropyl)-piperidin-4-yl]oxy}pyridin-3-yl)-1,2-oxazole-4-carboxamide]
2 | 3400 | 620 | Cc1noc(Nc2cnc(C(=O)NC3CCN(CC(F)F)CC3)cn2)c1C(=O)Nc1ccc(F)c(F)c1 [Example 1b, N-[1-(2,2-Difluoroethyl)piperidin-4-yl]-5-({4-[(3,4-difluorophenyl)carbamoyl]-3-methyl-1,2-oxazol-5-yl}amino)pyrazine-2-carboxamide]
3 | 940 | 170 | Cc1noc(Nc2cnc(C(F)(F)F)cn2)c1C(=O)Nc1ccc(F)c(F)c1 [Example 1c, N-(3,4-Difluorophenyl)-3-methyl-5-{[5-(trifluoromethyl)pyrazin-2-yl]amino}-1,2-oxazole-4-carboxamide]
